Assay results from PubChem BioAssay AID2060505 (Molecular Pharmacology Branch, DTP, NCI, 2025).

Tested on: 633275-114-R-J1-PDC complex spheroids, viability
Assay: Anticancer human tumor 633275-114-R-J1-PDC patient-derived endometrial adenocarcinoma cell line growth inhibition [GQUAD]
Settings: for IC50: curve of first compound; for viability, T/C: stronger effect = lower value
Method in brief: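 Multi-cell-type spheroids of tumor cells with HUVEC and mesenchymal stem cells, treated with drug combinations. Concentrations descend in half-log steps from near clinical Cmax, or from 10 microM where Cmax is unknown; viability read-out.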

[1] = second compound 0.0316 µM, first compound 0.0316 µM
[2] = second compound 0.0316 µM, first compound 0.1 µM
[3] = second compound 0.0316 µM, first compound 0.316 µM
[4] = second compound 0.0316 µM, first compound 1 µM
[5] = second compound 0.0316 µM, first compound 3.16 µM
[6] = second compound 0.0316 µM, first compound 10 µM
[7] = second compound 0.1 µM, first compound 0.0316 µM
[8] = second compound 0.1 µM, first compound 0.1 µM
[9] = second compound 0.1 µM, first compound 0.316 µM
[10] = second compound 0.1 µM, first compound 1 µM
[11] = second compound 0.1 µM, first compound 3.16 µM
[12] = second compound 0.1 µM, first compound 10 µM
[13] = second compound 0.316 µM, first compound 0.0316 µM
[14] = second compound 0.316 µM, first compound 0.1 µM
[15] = second compound 0.316 µM, first compound 0.316 µM
[16] = second compound 0.316 µM, first compound 1 µM
[17] = second compound 0.316 µM, first compound 3.16 µM
[18] = second compound 0.316 µM, first compound 10 µM
[19] = second compound 1 µM, first compound 0.0316 µM
[20] = second compound 1 µM, first compound 0.1 µM
[21] = second compound 1 µM, first compound 0.316 µM
[22] = second compound 1 µM, first compound 1 µM
[23] = second compound 1 µM, first compound 3.16 µM
[24] = second compound 1 µM, first compound 10 µM
[25] = second compound 3.16 µM, first compound 0.0316 µM
[26] = second compound 3.16 µM, first compound 0.1 µM
[27] = second compound 3.16 µM, first compound 0.316 µM
[28] = second compound 3.16 µM, first compound 1 µM
[29] = second compound 3.16 µM, first compound 3.16 µM
[30] = second compound 3.16 µM, first compound 10 µM
[31] = second compound 10 µM, first compound 0.0316 µM
[32] = second compound 10 µM, first compound 0.1 µM
[33] = second compound 10 µM, first compound 0.316 µM
[34] = second compound 10 µM, first compound 1 µM
[35] = second compound 10 µM, first compound 3.16 µM
[36] = second compound 10 µM, first compound 10 µM
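Also: spheroids exposed to the agents for seven days.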
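For viability, T/C in this document: percent of DMSO vehicle control viability which is 100%.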

Structure (SMILES): C=CC(=O)N1CCN(c2nc(=O)n(-c3c(C)ccnc3C(C)C)c3nc(-c4c(O)cccc4F)c(F)cc23)C(C)C1 (centres undefined) + CN(C)c1ccc(Nc2c3ccc(NC(=O)CCN4CCCC4)cc3nc3cc(NC(=O)CCN4CCCC4)ccc23)cc1
- IC50 (second compound 0.0316 µM): > 10 µM
- IC50 (second compound 0.1 µM): > 10 µM
- IC50 (second compound 0.316 µM): > 10 µM
- IC50 (second compound 1 µM): > 10 µM
- IC50 (second compound 3.16 µM): > 10 µM
- IC50 (second compound 10 µM): < 0.0316 µM
- viability, T/C [1]: 109%
- viability, T/C [2]: 88%
- viability, T/C [3]: 94.9%
- viability, T/C [4]: 92.5%
- viability, T/C [5]: 106%
- viability, T/C [6]: 81.8%
- viability, T/C [7]: 98.1%
- viability, T/C [8]: 92%
- viability, T/C [9]: 97.7%
- viability, T/C [10]: 92.6%
- viability, T/C [11]: 97.2%
- viability, T/C [12]: 76%
- viability, T/C [13]: 92.8%
- viability, T/C [14]: 95.4%
- viability, T/C [15]: 110%
- viability, T/C [16]: 110%
- viability, T/C [17]: 98.9%
- viability, T/C [18]: 76%
- viability, T/C [19]: 95.5%
- viability, T/C [20]: 88.6%
- viability, T/C [21]: 100%
- viability, T/C [22]: 97.5%
- viability, T/C [23]: 104%
- viability, T/C [24]: 65.2%
- viability, T/C [25]: 84.2%
- viability, T/C [26]: 85.1%
- viability, T/C [27]: 92.1%
- viability, T/C [28]: 84.5%
- viability, T/C [29]: 78.1%
- viability, T/C [30]: 51.3%
- viability, T/C [31]: 34.3%
- viability, T/C [32]: 34.3%
- viability, T/C [33]: 35.2%
- viability, T/C [34]: 41%
- viability, T/C [35]: 37.3%
- viability, T/C [36]: 15.4%

Structure (SMILES): COc1ncnc(C2CC2)c1-c1ncc2cnn(Cc3ccc(-c4nc(C(F)(F)F)cn4C(C)C)cc3)c2n1 + Cc1cnc(CNC(=O)c2c(=O)c3ccc(N4CCCN(C)CC4)nc3n3c2sc2ccccc23)cn1
- IC50 (second compound 0.0316 µM): > 10 µM
- IC50 (second compound 0.1 µM): < 0.0316 µM
- IC50 (second compound 0.316 µM): < 0.0316 µM
- IC50 (second compound 1 µM): < 0.0316 µM
- IC50 (second compound 3.16 µM): < 0.0316 µM
- IC50 (second compound 10 µM): < 0.0316 µM
- viability, T/C [1]: 53.1%
- viability, T/C [2]: 54.6%
- viability, T/C [3]: 59.3%
- viability, T/C [4]: 56%
- viability, T/C [5]: 56.5%
- viability, T/C [6]: 58.2%
- viability, T/C [7]: 45.3%
- viability, T/C [8]: 45.5%
- viability, T/C [9]: 45.9%
- viability, T/C [10]: 48.5%
- viability, T/C [11]: 49%
- viability, T/C [12]: 50%
- viability, T/C [13]: 42.7%
- viability, T/C [14]: 43.9%
- viability, T/C [15]: 42.1%
- viability, T/C [16]: 38.8%
- viability, T/C [17]: 48.7%
- viability, T/C [18]: 42.5%
- viability, T/C [19]: 39.9%
- viability, T/C [20]: 39.7%
- viability, T/C [21]: 37.1%
- viability, T/C [22]: 36.9%
- viability, T/C [23]: 40.5%
- viability, T/C [24]: 38.7%
- viability, T/C [25]: 32%
- viability, T/C [26]: 32.1%
- viability, T/C [27]: 35.5%
- viability, T/C [28]: 33.4%
- viability, T/C [29]: 36.6%
- viability, T/C [30]: 34.1%
- viability, T/C [31]: 29.2%
- viability, T/C [32]: 28.8%
- viability, T/C [33]: 30.5%
- viability, T/C [34]: 27.5%
- viability, T/C [35]: 31.9%
- viability, T/C [36]: 29.3%
